{"source": "patent US12171764B2", "about": "“Treatment of a disease of the gastrointestinal tract with a JAK or other kinase inhibitor” (BIORA THERAPEUTICS, INC., priority 2018, dated 2024)", "key": {"[1]": {"tested_on": "IL-6, GM-CSF, IL-15, IL-2, IL-12, IL-13, TNF-α, and INF-γ", "assay": "Tofacitinib pharmacodynamics: JAK/STAT pathway cytokines in plasma and colon tissue by ELISA in DSS-induced colitis mice", "format": "in vivo, male C57BL/6 mice"}, "[2]": {"details": "C57BL/6, mouse, in vivo, po, 15 mg/kg"}, "[3]": {"details": "C57BL/6, mouse, in vivo, 10 mg/kg"}, "[4]": {"assay": "Example 10: tacrolimus blood/plasma pharmacokinetics, oral vs intra-cecal ingestible device delivery", "format": "in vivo, Yorkshire-Cross farm swine", "description": "(§1) The primary objective of this study was to compare the tissue, plasma, rectal sample, and GI content pharmacokinetics of tacrolimus through oral versus intra-cecal ingestible device delivery in normal Yorkshire-Cross farm swine.\n(§2) No further randomization procedure was employed.\nAnimals in Group 1 received an ingestible device containing 0.8 mL of vehicle solution (80% alcohol, 20% HCO-60). Animals in Group 2 received orally […] liquid formulation of tacrolimus at 4 mg/0.8 mL per animal (Prograf: 5 mg/mL). Animals in Group 3 received intra-cecally an ingestible device containing tacrolimus at 1 mg in 0.8 mL per ingestible device. Animals in Group 4 received intra-cecally an ingestible device containing tacrolimus at 2 mg in 0.8 mL per ingestible device. Animals in Group 5 received intra-cecally an ingestible device containing tacrolimus at 4 mg in 0.8 mL per ingestible device. To control for potential confounding effects of the surgery, all groups fast on Day −11 at least 24 hr before being subjected to anesthesia followed by surgical placements of a cecal port by a veterinary surgeon at Day −10. All animals were fasted for at least 12 hr prior to dosing on Day 1. Animals were dosed via either intra-cecal dosing (IC) or oral dosing (PO) at Day 1 (between 6-8 p.m.). All animals resumed feeding at approximately 4 hours after dose (11-12 p.m. after dosing).\nApproximately 200˜400 mg of rectal content were collected, if available, with a fecal swab (Copan Diagnostics Nylon Flocked Dry Swabs, 502CS01). The fecal swab was pre-weighed and weighed after collection in the collection tube (Sterile Tube and Cap No Media, PFPM913S), and the sample weight was recorded. The fecal swab was broken via the breakpoint, and was stored in the collection tube, and immediately frozen at −70° C. […] Immediately following euthanasia, tissue was collected.\n[…] Plasma, rectal content sample, tissue collection, GI content collection and related procedures/storage/shipments was the same as those employed in Group 1.\nGroup 3 animals were administered a single intra-cecal ingestible device containing tacrolimus at 1-mg/0.8 mL (0.02 mg/kg) (in the vehicle solution) on Day 1 by a veterinary surgeon. […] All samples were analyzed for tacrolimus.\nGroup 4 animals were administered a single intra-cecal ingestible device of tacrolimus at 2 mg/0.8 mL (0.04 mg/kg) (in sterile vehicle solution) on Day 1 by a veterinary surgeon. […] All samples were analyzed for tacrolimus.\nGroup 5 animals are administered a single intra-cecal ingestible device containing tacrolimus at 4 mg/0.8 mL (0.08 mg/kg) (in the vehicle solution) on Day 1 by a veterinary surgeon. […] All samples were analyzed for tacrolimus. […]"}, "[5]": {"assay": "Example 10: tacrolimus in GI tissue, luminal content and rectal content, oral vs intra-cecal ingestible device delivery", "format": "in vivo, Yorkshire-Cross farm swine", "details": "FIG. 92", "description": "as §1\nAnimals in Group 1 received an ingestible device containing 0.8 mL of vehicle solution (80% alcohol, 20% HCO-60). Animals in Group 2 received orally […] liquid formulation of tacrolimus at 4 mg/0.8 mL per animal (Prograf: 5 mg/mL). Animals in Group 3 received intra-cecally an ingestible device containing tacrolimus at 1 mg in 0.8 mL per ingestible device. […]\nApproximately 200˜400 mg of rectal content were collected, if available, with a fecal swab (Copan Diagnostics Nylon Flocked Dry Swabs, 502CS01). The fecal swab was pre-weighed and weighed after collection in the collection tube (Sterile Tube and Cap No Media, PFPM913S), and the sample weight was recorded. […]\nFor tissue necropsy, small intestine fluid and cecal fluid were collected separately from all the animals into two separate square plastic bottles, and stored at −20° C. The length and diameter of the cecum and the colon was measured from one animal in each group and recorded for reference. […] All samples were weighed, and the tissue sample weights were recorded. […] Around 3 grams of the total punched sample were collected into a pre-weighed 15-mL conical tube, and the tissue weight was recorded. […]"}, "[6]": {"assay": "Example 13: tacrolimus blood pharmacokinetics, oral vs intra-cecal administration", "format": "in vivo, Yorkshire-Cross farm swine", "details": "swine", "from_the_text": "as §2"}, "[7]": {"details": "animals treated IC (Groups 5-6); FIG. 110", "quoted_text": "Briefly, samples were analyzed by LC-MS/MS against matrix-matched standard curves."}}, "note": "Where two headings read alike, the source gives them in different places.", "data": [{"smiles": "C[C@@H]1CCN(C(=O)CC#N)C[C@@H]1N(C)c1ncnc2[nH]ccc12", "note": "[tofacitinib, 3-[(3R,4R)-4-methyl-3-[methyl(7H-pyrrolo[2,3-d]pyrimidin-4-yl)amino]piperidin-1-yl]-3-oxopropanenitrile]", "values": [{"measurement": "GM-CSF levels in plasma or colon tissue", "setting": "[1]; IC vs PO treatment groups (data not shown)", "result": "nor was there a significant difference in GM-CSF levels"}, {"measurement": "T1/2", "setting": "[2]", "result": 2.53, "unit": "h"}, {"measurement": "T1/2", "setting": "[3]", "result": 2.16, "unit": "h"}]}, {"smiles": "C=CC[C@@H]1/C=C(\\C)C[C@H](C)C[C@H](OC)[C@H]2O[C@@](O)(C(=O)C(=O)N3CCCC[C@H]3C(=O)O[C@H](/C(C)=C/[C@@H]3CC[C@@H](O)[C@H](OC)C3)[C@H](C)[C@@H](O)CC1=O)[C@H](C)C[C@@H]2OC", "note": "[tacrolimus]", "values": [{"measurement": "Tmax", "setting": "[4]; Route IC, Dose 0.02 (mg · kg)", "result": 1}, {"measurement": "Cmax", "setting": "[4]; Route IC, Dose 0.04 (mg · kg)", "result": "9.197 ± 3.30", "unit": "ng/mL"}, {"measurement": "AUC 0-12 hr", "setting": "[4]; Route PO, Dose 0.09 (mg · kg)", "result": "16.83 ± 3.641", "unit": "ng·h/mL"}, {"measurement": "Tmax", "setting": "[4]; Route PO, Dose 0.09 (mg · kg)", "result": 1}, {"measurement": "rectal content concentration at 12 hours post-treatment", "setting": "[5]; IC capsule groups", "result": "higher rectal content concentration"}, {"measurement": "rectal content concentration at 12 hours post-treatment", "setting": "[5]; PO group", "result": "no detectable level"}, {"measurement": "Trough (12 hr)", "setting": "[6]; IC 0.02 mg/kg (Group 3)", "result": 0.746, "unit": "ng/mL"}, {"measurement": "Cmax", "setting": "[6]; IC 0.04 mg/kg", "result": "9.197 ± 3.30", "unit": "ng/mL"}, {"measurement": "Trough (12 hr)", "setting": "[6]; IC 0.04 mg/kg (Group 4)", "result": 1.96, "unit": "ng/mL"}, {"measurement": "Trough (12 hr)", "setting": "[6]; IC 0.09 mg/kg (Group 5)", "result": 4.35, "unit": "ng/mL"}, {"measurement": "Cmax", "setting": "[6]; PO 0.09 mg/kg", "result": "3.53 ± 3.84", "unit": "ng/mL"}, {"measurement": "Trough (12 hr)", "setting": "[6]; PO 0.09 mg/kg (Group 2), 0.09 mg/kg", "result": 0.568, "unit": "ng/mL"}]}, {"smiles": "C[C@@H]1CCN(C(=O)CC#N)C[C@@H]1N(C)c1ncnc2[nH]ccc12.O=C(O)CC(O)(CC(=O)O)C(=O)O", "note": "[tofacitinib citrate]", "values": [{"measurement": "IL-6 expression in plasma", "setting": "[1]; PO or IC administration, 1 h and 3 h post-treatment (data not shown)", "result": "inhibition of IL-6 expression was observed"}, {"measurement": "IL-6 expression in colon tissue", "setting": "[1]; all IC treated groups and the high dose PO group (45 mg/kg), FIG. 112B", "result": "inhibition of IL-6 expression was sustained through 24 h post-dose"}, {"measurement": "IL-6 expression in colon tissue", "setting": "[1]; low dose PO group (15 mg/kg) by 12 h post-dose", "result": "Recovery from IL-6 inhibition was observed"}, {"measurement": "blood exposure", "setting": "[7]", "result": "limited blood exposure"}]}]}
